pIC50: −log10 of the molar value.

The first assay has as its target T1, Recombinant human LTC4 synthase (Homo sapiens, UniProt Q16873).
T1 construct: made in house; host or cells: Pichia pastoris ('Piccia pastoralis' [sic])
T1 sequence (Q16873 1-150): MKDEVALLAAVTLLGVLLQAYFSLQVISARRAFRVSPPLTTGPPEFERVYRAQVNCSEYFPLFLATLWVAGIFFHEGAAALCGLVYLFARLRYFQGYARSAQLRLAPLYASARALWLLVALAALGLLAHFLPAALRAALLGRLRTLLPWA
Kind of assay: In vitro LTC4 synthase assay (LTA4 to LTC4, HTRF detection). Format: biochemical. A general note: Time-resolved FRET reads energy transfer from a long-lived donor to a nearby acceptor.
In the case of `CN(c1ccc(Cl)cc1)c1ccc(C(=O)c2cc(NC(=O)c3ccc(Cl)cc3Cl)cc(C(=O)O)c2)cc1` [Example 1:1, 3-{4-[(4-Chlorophenyl)(methyl)amino]benzoyl}-5-(2,4-dichlorobenzamido)benzoic acid], the negative logarithm of the IC50 (pIC50) was 6.78.

Turning to `CN(c1ccc(Cl)cc1)c1ccc(C(=O)c2cc(Nc3ccc(Cl)cc3)cc(C(=O)O)c2)cc1` [Example 10:2, 3-{4-[(4-Chlorophenyl)(methyl)amino]benzoyl}-5-(4-chlorophenylamino)-benzoic acid], the pIC50 is 7.19.

In the case of `COc1cccc(Nc2cc(C(=O)O)cc(C(=O)c3ccc(N(C)c4ccc(Cl)cc4)cc3)c2)c1` [Example 10:3, 3-{4-[(4-Chlorophenyl)(methyl)amino]benzoyl}-5-(3-methoxyphenylamino)-benzoic acid], the pIC50 is 6.56.

Consider `CN(c1ccc(Cl)cc1)c1ccc(C(=O)c2cc(C(=O)O)cc(N(C)c3ccccc3)c2)cc1` [Example 10:23, 5-{4-[(4-Chlorophenyl)(methyl)amino]benzoyl}-3-[methyl(phenyl)amino]benzoic acid], for which the pIC50 is 7.40.

`CN(c1ccc(Cl)cc1)c1ccc(C(=O)c2cc(C(=O)O)cc(N(C(=O)C3CCC3)c3ccccc3)c2)cc1` [Example 10:31, 3-{4-[(4-Chlorophenyl)(methyl)amino]benzoyl}-5-[(N-phenyl)cyclobutylcarboxamido]benzoic acid]: the pIC50 was 6.56.

Regarding `CC(C)OCC(O)CN(c1ccccc1)c1cc(C(=O)O)cc(C(=O)c2ccc(N(C)c3ccc(Cl)cc3)cc2)c1` (stereo not shown) [Example 10:38, 3-{4-[(4-Chlorophenyl)(methyl)amino]benzoyl}-5-[(2-hydroxy-3-isopropoxy-propyl)(phenyl)amino]benzoic acid], the pIC50 was 6.74.

Consider `COc1ccc(COc2cc(C(=O)O)cc(C(=O)c3ccc(N(C)c4ccc(Cl)cc4)cn3)c2)cc1` [Example 11:1, 3-{5-[(4-Chlorophenyl)(methyl)aminol]picolinoyl}-5-(4-methoxybenzyloxy)benzoic acid], for which the pIC50 is 6.05.

For `CN(c1ccc(Cl)cc1)c1ccc(C(=O)c2cc(C(=O)O)cc(-c3cccc(Cl)c3)c2)nc1` [Example 12:1, 3′-Chloro-5-{5-[(4-chlorophenyl)(methyl)amino]picolinoyl}biphenyl-3-carboxylic acid], the negative-log IC50 (pIC50) was 6.74.

As to `CN(c1ccc(Cl)cc1)c1ccc(C(=O)c2cc(Cc3ccccc3)cc(C(=O)O)c2)nc1` [Example 13, 3-Benzyl-5-{5-[(4-chlorophenyl)(methyl)amino]picolinoyl}benzoic acid], the pIC50 is 6.53.

As for `CN(c1ccc(Cl)cc1)c1ccc(C(=O)c2cc(C(=O)O)cc(C(=O)c3ccccc3)c2)nc1` [Example 14, 3-Benzoyl-5-{5-[(4-chlorophenyl)(methyl)amino]picolinoyl}benzoic acid], the pIC50 was 6.84.

`COc1cccc(C(=O)c2cc(C(=O)O)cc(C(=O)c3ccc(N(C)c4ccc(Cl)cc4)cn3)c2)c1` [Example 15, 3-{5-[(4-Chlorophenyl)(methyl)amino]picolinoyl}-5-(3-methoxybenzoyl)benzoic acid]: the pIC50 is 6.76.

As for `CN(c1ccc(Cl)cc1)c1ccc(C(=O)c2cc(C(=O)O)cc(-n3ccc4ccccc43)c2)nc1` [Example 16, 3-{5-[(4-Chlorophenyl)(methyl)aminol]picolinoyl}-5-(1-indolyl)benzoic acid], the negative logarithm of the IC50 (pIC50) was 6.59.

Another assay concerns the target T1, Recombinant human LTC4 synthase. The assay is described as above. Format: biochemical. This is another data set of the same source.
On to `CN(c1ccc(Cl)cc1)c1ccc(C(=O)c2cc(NC(=O)c3ccc(Cl)cc3Cl)cc(C(=O)O)c2)cc1` [Example 1:1, 3-{4-[(4-Chlorophenyl)(methyl)amino]benzoyl}-5-(2,4-dichlorobenzamido)benzoic acid], for which the inhibition at 1 µM turned out to be 95%.

Broadly, the pIC50 is the IC50 on a negative log10 scale, so that one unit is a factor of ten. By inhibition is commonly meant the relative decrease from the control value, in per cent.

These data come from patent US20120004228A1, “Bis Aromatic Compounds for Use as LTC4 Synthase Inhibitors” (BIOLIPOX AB, priority 2009, published 2012).
